Laboratory results taken from ChEMBL document CHEMBL4251600, “Bioactive products from singlet oxygen photooxygenation of cannabinoids” (Eur J Med Chem, 2018).
Converted amounts (≈) assume the structure as drawn.

Legend:
[1] = tested on: SK-MEL; assay: Anticancer activity against human SK-MEL cells assessed as cell growth inhibition incubated for 48 hrs by neutral red dye based assay; format: functional
[2] = tested on: LLC-PK1; assay: Cytotoxicity against pig LLC-PK1 cells assessed as cell growth inhibition incubated for 48 hrs by neutral red dye based assay; parameters: species or system Sus scrofa; settings: llc-pk1
[3] = tested on: Staphylococcus aureus; assay: Antimicrobial activity against methicillin-resistant Staphylococcus aureus by modified CLSI based method; format: functional, organism-based
[4] = tested on: Staphylococcus aureus; assay: Antimicrobial activity against Staphylococcus aureus by modified CLSI based method; format: functional, organism-based
[5] = tested on: Cryptococcus neoformans; assay: Antifungal activity against Cryptococcus neoformans by alamar blue assay; format: functional, organism-based; settings: Cryptococcus neoformans
[6] = tested on: Pichia kudriavzevii; assay: Antifungal activity against Candida krusei by modified CLSI based method; format: functional, organism-based; settings: Pichia kudriavzevii; read-out: IC50
[7] = tested on: Nakaseomyces glabratus; assay: Antifungal activity against Candida glabrata by modified CLSI based method; format: functional, organism-based
[8] = tested on: Plasmodium falciparum; assay: Antiplasmodial activity against chloroquine-sensitive Plasmodium falciparum D6 infected in red blood cells incubated for 72 hrs by parasite LDH release based colorimetric assay; format: functional, organism-based; settings: D6, 72 h
[9] = tested on: Plasmodium falciparum; assay: Antiplasmodial activity against chloroquine-resistant Plasmodium falciparum W2 infected in red blood cells incubated for 72 hrs by parasite LDH release based colorimetric assay; format: functional, organism-based; settings: W2, 72 h
[10] = tested on: Leishmania donovani; assay: Antileishmanial activity against Leishmania donovani promastigotes incubated for 48 hrs by alamar blue assay; format: functional, organism-based; settings: Leishmania donovani, 48 h
[11] = tested on: KB; assay: Anticancer activity against human KB cells assessed as cell growth inhibition up to 10 ug/ml incubated for 48 hrs by neutral red dye based assay; format: functional
[12] = tested on: BT-549; assay: Anticancer activity against human BT549 cells assessed as cell growth inhibition up to 10 ug/ml incubated for 48 hrs by neutral red dye based assay; format: functional
[13] = tested on: SK-OV-3; assay: Anticancer activity against human SKOV3 cells assessed as cell growth inhibition up to 10 ug/ml incubated for 48 hrs by neutral red dye based assay; format: functional

Compound `C=C1C[C@H]2C3=C(OC(C)(C)[C@@H]2CC1OO)C(=O)C(CCCCC)=CC3=O` (stereo in doubt; 25) has an IC50 [1] of 8.65 µg/mL (≈ 24 µM), an IC50 [2] of 9.9 µg/mL (≈ 27.5 µM) and an IC50 [3] of 5.78 µg/mL (≈ 16 µM). The MIC ([3]; Staphylococcus aureus) was 10 µg/mL (≈ 27.7 µM), the IC50 [4] was 0.91 µg/mL (≈ 2.52 µM) and the MIC ([4]; Staphylococcus aureus, read-out: MIC) was 2.5 µg/mL (≈ 6.94 µM). It also gave an IC50 ([5]; read-out: IC50) of 1.4 µg/mL (≈ 3.88 µM), an MIC ([5]; read-out: MIC) of 2.5 µg/mL (≈ 6.94 µM) and an IC50 [6] of 17 µg/mL (≈ 47.2 µM). For the same compound, the IC50 [7] was “Not Active”, the IC50 [8] was 1 µg/mL (≈ 2.77 µM) and the IC50 [9] was 0.9 µg/mL (≈ 2.5 µM). The IC50 ([10]; read-out: IC50) was 2.1 µg/mL (≈ 5.83 µM), the IC90 ([10]; read-out: IC90) was 11 µg/mL (≈ 30.5 µM) and the IC50 [11] was “Not Active”. For the same compound, the IC50 [12] was “Not Active” and the IC50 [13] was “Not Active”.
